Measurements: patent US20240066087A1, “SUTHERLANDIA EXTRACT AND THE USE THEREOF IN THE MANUFACTURE OF A MEDICAMENT” (ACUPHARM INTERNATIONAL PROPRIETARY LIMITED, priority 2020, published 2024)

test system: cultured tissue from needle biopsy, Breast DCIS papillary neoplasm; experiment: dose response study with cumulative cell death on cultured patient biopsy tissue (patient 19055); assay type: cell-based, human; conditions: in vitro cultured biopsy sample, patient 19055, Breast DCIS papillary neoplasm
Experimental: Comparative studies were performed using Sutherlandia leaf extract in water (referred to as ACPJL35), Sutherlandia leaf extract in 50% ethanol and water solution (referred to as ACPJL28), and Sutherlandia leaf extract in 90% ethanol and water solution (referred to as ACPJL07). These extracts were compared to a number of known botanical isolates with anti-cancer activity, as well as a number of known anti-cancer drugs, using a dose response design with cumulative cell death as the dependent variable. These studies were conducted on in vitro samples of cultured tissue, taken as biopsy samples from patients as part of a standard culture and testing process done in order to optimise treatment.
Patient from whom sample was obtained was a person presenting with a diagnosis of Breast DCIS papillary neoplasm. The sample was obtained via needle biopsy, before being cultured.

SMILES	efficacy assessment from dose response (dose-CR curve), cumulative cell death as dependent variable
COc1cc2c(Oc3ccc4[nH]c(C)cc4c3F)ncnc2cc1OCCCN1CCCC1 [Cediranib]	having potential benefit
Nc1nc(Cl)nc2c1ncn2[C@@H]1O[C@H](CO)[C@@H](O)[C@@H]1F [Clofarabine]	having potential benefit
CC(=O)O[C@@]12CO[C@@H]1C[C@H](O)[C@@]1(C)C(=O)[C@H](O)C3=C(C)[C@@H](OC(=O)[C@H](O)[C@@H](NC(=O)OC(C)(C)C)c4ccccc4)C[C@@](O)([C@@H](OC(=O)c4ccccc4)[C@H]21)C3(C)C [Docetaxel]	having potential benefit
COc1cc2ncnc(Nc3ccc(F)c(Cl)c3)c2cc1OCCCN1CCOCC1 [Gefitinib]	having potential benefit
O=C1c2c(O)ccc(O)c2C(=O)c2c(NCCNCCO)ccc(NCCNCCO)c21 [Mitoxantrone]	having potential benefit
COC(=O)c1ccc2c(c1)NC(=O)/C2=C(\Nc1ccc(N(C)C(=O)CN2CCN(C)CC2)cc1)c1ccccc1 [Nintedanib]	good efficacy and a positive dose response curve
CC(=O)O[C@H]1C(=O)[C@@]2(C)[C@H]([C@H](OC(=O)c3ccccc3)[C@]3(O)C[C@H](OC(=O)[C@H](O)[C@@H](NC(=O)c4ccccc4)c4ccccc4)C(C)=C1C3(C)C)[C@]1(OC(C)=O)CO[C@@H]1C[C@@H]2O [Paclitaxel]	having potential benefit
CC[C@]1(O)C[C@H]2CN(CCc3c([nH]c4ccccc34)[C@@](C(=O)OC)(c3cc4c(cc3OC)N(C=O)[C@H]3[C@@](O)(C(=O)OC)[C@H](OC(C)=O)[C@]5(CC)C=CCN6CC[C@]43[C@@H]65)C2)C1 [Vincristine]	having potential benefit
CCC1=C[C@@H]2CN(C1)Cc1c([nH]c3ccccc13)[C@@](C(=O)OC)(c1cc3c(cc1OC)N(C)[C@H]1[C@@](O)(C(=O)OC)[C@H](OC(C)=O)[C@]4(CC)C=CCN5CC[C@]31[C@@H]54)C2 [Vinorelbine]	having potential benefit
O=C(CCCCCCC(=O)Nc1ccccc1)NO [Vorinostat]	having potential benefit
